Values after ≈ are worked out from the molar mass of the structure shown. Read-outs that look alike come from different tables or passages of the source.
Key:
[1] = test system: usual foodborne mold strains; test: Inhibition of mold growth outside the droplet aqueous phase, antifungal in oil phase; type: cell-based; conditions: 40 to 100 mg/L in the oil for EvaGreen, 28° C., 24 to 48 hours
Procedure: (§1) Usual foodborne mold strains were grown until the sporulation state (usually for 5 to 7 days) on the appropriate culture medium at 28° C. Spores were then scraped into 0.05% Tween 80 sterile solution. The collected suspensions were filtered on several layers of gauze compressed to eliminate most of the hyphae and mycelium fragments. When necessary, the suspensions were kept under stirring in the dark and at room temperature before the filtration step to ensure optimal spore release from the fungal structures. The spore concentration was determined in a hemocytometer chamber and/or by plating on agar Petri plates.
(§2) The suspensions were then centrifuged for 5 minutes at 10.000 rpm and the supernatants discarded. The pellets were resuspended with the appropriate volume of YGC broth containing 30% of glycerol and the aliquots were stored at −20° C. for up to 6 months.
(§3) Aliquots were thawed at room temperature and washed once in YGC broth to remove glycerol. The spores were then diluted to the concentration of 10^5 spores/mL in YGC broth containing 5% of Pluronic F68 surfactant.
(§4) Dicloran stock solution was prepared at 40 mg/mL in acetone. The stock solution was then diluted to produce working solutions according to table below.
(§5) A volume of 10 μL of the appropriate working solution was then added to 2 mL of Oil for Eva Green to reach the targeted final concentrations (0.5% v/v) (see the table below).
(§6) For droplet generation using the QX200™ Droplet generator, the ‘sample’ and ‘oil’ wells of a DG8 cartridge were respectively filled with […], of the prepared spore suspension (with or without CFDA) and 70 μL of the Oil for Eva Green (with or without Dicloran). After the generation process, the droplet emulsions (30-35 μL/well) were transferred to a 96-well Eppendorf plate and placed at 28° C. for 24 to 48 hours.

[2] = test system: Erotium rubrum CECT 20807; test: as above; type: cell-based
Procedure: as §1, §2, §3, §4, §5, §6

[3] = test system: Mucor racemosus CECT 20821; test: as above; type: cell-based; conditions: YCG broth, 48 hours
Procedure: as §1, §2, §3, §4, §5, §6

[4] = test system: Fusarium graminearum DSM 1096; type: cell-based; conditions: 100 mg/L in the oil phase, YCG broth, 48 hours
[5] = test system: Aspergillus restrictus CECT 20807; test: Inhibition of mold growth outside the droplet aqueous phase, antifungal in oil phase; type: cell-based; conditions: YCG broth
[6] = test system: Penicillium hirsutum ATCC 16025; test: as above; type: cell-based; conditions: 80 mg/L in the oil phase, YCG broth, 24 hours
bacteria or yeast = test: Turbidity of a culture over time in the presence and absence of PI; type: cell-based; conditions: presence vs absence of PI
Procedure: FIGS. 13A and 13B are a sample of SA+PI without FOX after 6 h of incubation. FIGS. 14A-14C are SA+PI+0.25 mg/L FOX after 6 h of incubation. FIGS. 15A-15C are SA+PI+0.5 mg/L FOX after 6 h of incubation. FIGS. 16A-16C are SA+PI+4 mg/L FOX after 6 h of incubation. PI is excluded from viable cells and penetrates the cell membranes of dead or dying cells. […] Intercalating agents are considered toxic for cell growth because they react with DNA, blocking the replication of the cells.

S. aureus ATCC®29213™ [7] = conditions: cited from earlier work
S. aureus ATCC®29213™ [8] = test: Antimicrobial susceptibility testing in water-in-oil droplets, microscope reading; type: cell-based, Staphylococcus aureus; conditions: for Growth in droplets (observation in words): 2 mg/L
Procedure: (at 30° C. for the C. albicans).

S. aureus ATCC®43300™ [9] = test: Antimicrobial susceptibility testing in water-in-oil droplets, strain with or without induction of resistance; conditions: for MIC: Staphylococcus aureus
Procedure: They comprised Escherichia coli (ATCC®25922™), Staphylococcus aureus (ATCC®29212™), Enterococcus faecalis (ATCC®29212™) and Candida albicans (ATCC®24433™). […] This strain is known to carry an heterogeneous resistance phenotype was also used with or without induction with cephalosporins.
Each strain was stored as −80° C. frozen stock. Except when indicated, after overnight cultures in Trypto-casein-soy broth (TCS; Bio-Rad, Marnes 1a Coquette, France), all bacterial strains were started from the same adjusted turbidity which was equivalent to 1:100 of a 0.5 McFarland in TCS. For the Candida albicans, the starting turbidity was equivalent to a 1:10 of a 0.1 McFarland.
Droplets were prepared according to the manufacturer instructions (Bio-Rad) using QX200™ Droplet Generation Oil for EvaGreen (+surfactant) with the mixing parameters adjusted for sample volume and approximate number of microorganisms. Turbidity adjusted cultures were diluted in aqueous-phase reagents with a known concentration of antibiotic or antifungal agents in a 1:1 ratio of TCS culture to aqueous phase reagents (v/v, 10 μL/10 μL).
As soon as the droplets were prepared, the cartridges, protected by an adhesive film, were directly incubated at 37° C. (at 30° C. for the C. albicans).
After 4 and 6 hours of incubation, droplets were pipetted and introduced into cell counting slides (Bio-Rad). The microorganisms were then observed in the droplets using a microscope (objective 100× or 400×). The approximate counts of droplets carrying microorganisms as their growth inside the droplets were reported.
The minimal inhibitory concentration (MIC) was determined as the lowest concentration of an antimicrobial agent that prevents visible growth of a microorganism (i.e. a total absence of bacteria or a total absence of fungal growth observable in droplets using the microscope).

S. aureus ATCC®43300™ [10] = conditions: cited from earlier work
MRSA ATCC BAA 2312 = test: Droplets with labeled anti-PBP2a antibody, BSA +/- cefoxitin: growth and labeling; type: cell-based, Staphylococcus aureus; conditions: 3 h at 37° C.
Procedure: In another experiment, an anti-PBP2a antibody (Biosource clone M0071933) that recognizes PBP2a indicative of the resistance against methicillin in Staphylococcus aureus (SA) was labeled using Kit Lynx LNK174PETR (Abd Serotec). […] After incubation at 37° C. for 3 hours, the samples were read using the ZOE™ Fluorescent Cell Imager (Bio-Rad Laboratories). The tables below show growth (visible) and labeling (fluorescence) obtained for the tested strains of MSSA and MRSA.

**Q.** With `Nc1c(Cl)cc([N+](=O)[O-])cc1Cl` [dicloran, 2,6-dichloro-4-nitroaniline] as the compound, how does the “Hyphae spreading and mold growth outside the droplet” value [1] read?
**A.** the hyphae spreading was inhibited and mold growth was confined within the droplet

**Q.** And the “Mold growth outside the aqueous phase” value ([2]; 60 mg/L in the oil phase, YCG broth, 24 hours)?
**A.** inhibition of mold growth outside the aqueous phase

**Q.** What about the “Mold growth outside the aqueous phase” value ([2]; 80 mg/L in the oil phase, 5,6 carboxyfluorescein diacetate (25 mg/L) in the broth) of the same compound?
**A.** inhibition of Erotium rubrum CECT 20807 growth outside the aqueous phase

**Q.** And the “Mold growth outside the aqueous phase” value ([2]; 80 mg/L in the oil phase, YCG broth, 48 hours)?
**A.** inhibition of mold growth outside the aqueous phase

**Q.** And the “Mold growth outside the aqueous phase” value ([3]; 40 mg/L in the oil phase)?
**A.** inhibition of mold growth outside the aqueous phase

**Q.** What about the “Mold growth outside the aqueous phase” value ([3]; 60 mg/L in the oil phase) of the same compound?
**A.** inhibition of mold growth outside the aqueous phase

**Q.** And the “Mold growth outside the aqueous phase” value [4]?
**A.** inhibition of mold growth outside the aqueous phase

**Q.** What about the “Mold growth outside the aqueous phase” value ([5]; 80 mg/L in the oil phase, 24 hours) of the same compound?
**A.** inhibition of mold growth outside the aqueous phase

**Q.** And the “Mold growth outside the aqueous phase” value ([5]; 100 mg/L in the oil phase, 48 hours)?
**A.** inhibition of mold growth outside the aqueous phase

**Q.** And the “Mold growth outside the aqueous phase” value [6]?
**A.** inhibition of mold growth outside the aqueous phase

**Q.** Which “Impact on growth of bacteria or yeast” value (bacteria or yeast) does the source give for `CC[N+](C)(CC)CCC[n+]1c(-c2ccccc2)c2cc(N)ccc2c2ccc(N)cc21.[I-].[I-]` [PI, propidium iodide] here?
**A.** only a limited impact

**Q.** With `CO[C@@]1(NC(=O)Cc2cccs2)C(=O)N2C(C(=O)O)=C(COC(N)=O)CS[C@@H]21` [Cefoxitin] as the compound, how does the “Expected MIC (CLSI)” value (S. aureus ATCC®29213™ [7]) read?
**A.** 1 to 4 µg/mL

**Q.** And the “Growth in % of droplets” value (S. aureus ATCC®29213™ [8]; 0.5 mg/L, reading time 4 h)?
**A.** 20-30% of droplets

**Q.** What about the “Growth in % of droplets” value (S. aureus ATCC®29213™ [8]; 1 mg/L, reading time 4 h) of the same compound?
**A.** ~20% of droplets

**Q.** And the “Growth in % of droplets” value (S. aureus ATCC®29213™ [8]; 1 mg/L, reading time 6 h)?
**A.** Growth in <50% of

**Q.** What about the “Growth in droplets (observation in words)” value (“Growth in droplets” for short) (S. aureus ATCC®29213™ [8]; reading time 4 h) of the same compound?
**A.** No growth

**Q.** What about the “Growth in droplets” value (S. aureus ATCC®29213™ [8]; reading time 6 h) of the same compound?
**A.** No growth

**Q.** And the MIC (S. aureus ATCC®29213™ [8]; Staphylococcus aureus, ATCC29213, droplets at 37° C., read after 4 and 6 h, read-out: Observed MIC)?
**A.** 2 µg/mL (≈ 4.68 µM)

**Q.** What about the “Growth in droplets” value (S. aureus ATCC®43300™ [9]; 4 mg/L, 4 h w/o induction) of the same compound?
**A.** No growth

**Q.** And the “Growth in droplets” value (S. aureus ATCC®43300™ [9]; 4 mg/L, 4 h with induction)?
**A.** Limited growth

**Q.** And the “Growth in droplets” value (S. aureus ATCC®43300™ [9]; 4 mg/L, 6 h w/o induction)?
**A.** Limited growth (few

**Q.** And the “Growth in droplets” value (S. aureus ATCC®43300™ [9]; 4 mg/L, 6 h with induction)?
**A.** Limited growth

**Q.** And the “Growth in droplets” value (S. aureus ATCC®43300™ [9]; 8 mg/L, 4 h with induction)?
**A.** Limited growth in few

**Q.** And the “Growth in droplets” value (S. aureus ATCC®43300™ [9]; 8 mg/L, 6 h w/o induction)?
**A.** No growth

**Q.** What about the “Growth in droplets” value (S. aureus ATCC®43300™ [9]; 8 mg/L, 6 h with induction) of the same compound?
**A.** 1 droplet with cells

**Q.** What about the “Growth in droplets” value (S. aureus ATCC®43300™ [9]; 16 mg/L, 4 h with induction) of the same compound?
**A.** Very limited growth

**Q.** And the “Growth in droplets” value (S. aureus ATCC®43300™ [9]; 16 mg/L, 6 h with induction)?
**A.** No growth

**Q.** What about the “Growth in droplets” value (S. aureus ATCC®43300™ [9]; 32 mg/L, 4 h with induction) of the same compound?
**A.** No growth

**Q.** And the MIC (S. aureus ATCC®43300™ [9]; ATCC43300, read-out: Observed MIC, using non induced strain)?
**A.** 2 to 4 µg/mL (≈ 4.68 to 9.36 µM)

**Q.** What about the MIC (S. aureus ATCC®43300™ [9]; ATCC43300, read-out: Observed MIC, with induced strain) of the same compound?
**A.** 16 to 32 µg/mL (≈ 37.4 to 74.9 µM)

**Q.** And the “Expected MIC (JCM)” value (S. aureus ATCC®43300™ [10])?
**A.** 16 to 32 µg/mL

**Q.** And the “Growth (visible)” value (MRSA ATCC BAA 2312; BSA 0 + FOX 2 mg/L)?
**A.** Growth +<

**Q.** What about the “Growth (visible)” value (MRSA ATCC BAA 2312; BSA 2.5% + FOX 2 mg/L) of the same compound?
**A.** Growth +>
